In ChEMBL document CHEMBL4665638, “Second Generation Inhibitors of HIV-1 Maturation” (ACS Med Chem Lett, 2019):

What was measured:
[1] = Binding affinity to HIV-1 CA-SP1 cleavage site of Gag-Pol protein harboring V370A mutant assessed as inhibition of HIV-1 maturation; parameters: species or system Human immunodeficiency virus 1
[2] = Aqueous solubility of the compound; format: physicochemical
[3] = Binding affinity to wild type HIV-1 NL4-3 CA-SP1 cleavage site of Gag-Pol protein assessed as inhibition of HIV-1 maturation in presence of human serum albumin; parameters: species or system Human immunodeficiency virus 1
[4] = Binding affinity to HIV-1 CA-SP1 cleavage site of Gag-pol protein harboring deltaV370 mutant assessed as inhibition of HIV-1 maturation; parameters: species or system Human immunodeficiency virus 1
[5] = Clearance in dog; format: ADME, Canis lupus familiaris; conditions: in vivo
[6] = Volume of distribution at steady state in dog; format: ADME, Canis lupus familiaris; conditions: in vivo, read-out: Vdss
[7] = Oral bioavailability in dog; format: ADME, organism-based, Canis lupus familiaris; conditions: in vivo
[8] = Volume of distribution at steady state in cynomolgus monkey; format: ADME, Macaca fascicularis; conditions: in vivo, read-out: Vdss
[9] = Oral bioavailability in cynomolgus monkey; format: ADME, organism-based, Macaca fascicularis; conditions: in vivo
[10] = Binding affinity to HIV-1 CA-SP1 cleavage site of Gag-Pol protein harboring V362I mutant assessed as inhibition of HIV-1 maturation; parameters: species or system Human immunodeficiency virus 1
[11] = Binding affinity to HIV-1 CA-SP1 cleavage site of Gag-Pol protein harboring V370M mutant assessed as inhibition of HIV-1 maturation; parameters: species or system Human immunodeficiency virus 1
[12] = Binding affinity to HIV-1 CA-SP1 cleavage site of Gag-Pol protein harboring deltaV370/Thr371Ala mutant assessed as inhibition of HIV-1 maturation; parameters: species or system Human immunodeficiency virus 1
[13] = Binding affinity to HIV-1 CA-SP1 cleavage site of Gag-Pol protein harboring Thr371Ala mutant assessed as inhibition of HIV-1 maturation; parameters: species or system Human immunodeficiency virus 1
[14] = Binding affinity to HIV-1 CA-SP1 cleavage site of Gag-Pol protein harboring deltaThr371 mutant assessed as inhibition of HIV-1 maturation; parameters: species or system Human immunodeficiency virus 1
[15] = AUC in rat at 5 mg/kg, po measured for 6 hrs; format: ADME, organism-based; parameters: time 6 hrs, dose 5 mg/kg; conditions: in vivo
[16] = Clearance in rat at 5 mg/kg, po or 1 mg/kg, iv; format: ADME, organism-based; conditions: in vivo
[17] = Binding affinity to HIV-1 CA-SP1 cleavage site of Gag-Pol protein harboring […] mutant assessed as inhibition of HIV-1 maturation; parameters: species or system Human immunodeficiency virus 1
[18] = Binding affinity to wild type HIV-1 NL4-3 CA-SP1 cleavage site of Gag-Pol protein assessed as inhibition of HIV-1 maturation; parameters: species or system Human immunodeficiency virus 1
[19] = tested on: Human immunodeficiency virus 1; experiment: Ratio of EC50 for wild type HIV-1 NL4-3 CA-SP1 cleavage site of Gag-Pol protein in presence of human serum albumin to EC50 for wild type HIV-1 NL4-3 CA-SP1 cleavage site of Gag-Pol protein
[20] = AUC in rat for 6 hrs; format: ADME; parameters: time 6 hrs; conditions: in vivo

Row | Compound | EC50 [1] [µM] | EC50 [3] [µM] | EC50 [4] [µM] | EC50 [18] [µM] | other results
1 | C=C(C)[C@@H]1CC[C@]2(NCCN3CCS(=O)(=O)CC3)CC[C@]3(C)[C@H](CC[C@@H]4[C@@]5(C)CC=C(c6ccc(C(=O)O)cc6)C(C)(C)[C@@H]5CC[C@]43C)[C@@H]12 [BMS-955176] | 0.003 | 0.01 | 0.013 | – | solubility [2]: < 1 µg/mL; clearance [5]: 0.13 mL/min/kg; Vd [6]: 0.43 L/kg; bioavailability [7]: 9%; Vd [8]: 0.36 L/kg; bioavailability [9]: 4%; EC50 [10]: 0.004 µM; EC50 [11]: 0.003 µM; EC50 [12]: 0.007 µM; EC50 [13]: 0.003 µM; EC50 [14]: 0.005 µM; AUC at 6 h [15]: 14.2 µM·h
2 | C=C(C)[C@@H]1CC[C@]2(C(=O)O)CC[C@]3(C)[C@H](CC[C@@H]4[C@@]5(C)CC[C@H](OC(=O)CC(C)(C)C(=O)O)C(C)(C)[C@@H]5CC[C@]43C)[C@@H]12 [BEVIRIMAT] | – | – | – | – | solubility [2]: < 1 µg/mL; clearance [16]: 4 mL/min/kg; EC50 [17]: 0.008 µM; EC50 [11]: 0.111 µM; EC50 [12]: > 4 µM
3 | C=C(C)[C@@H]1CC[C@]2(C(=O)NCCC(=O)O)CC[C@]3(C)[C@H](CC[C@@H]4[C@@]5(C)CC=C(c6ccc(C(=O)O)cc6)C(C)(C)[C@@H]5CC[C@]43C)[C@@H]12 | 0.427 | 0.449 | > 4 | 0.037 | –
4 | C=C(C)[C@@H]1CC[C@]2(C(=O)NCCN3CCS(=O)(=O)CC3)CC[C@]3(C)[C@H](CC[C@@H]4[C@@]5(C)CC=C(c6ccc(C(=O)O)cc6)C(C)(C)[C@@H]5CC[C@]43C)[C@@H]12 | 0.006 | – | 0.06 | 0.002 | AUC at 6 h [15]: 3.99 µM·h
5 | C=C(C)[C@@H]1CC[C@]2(C(=O)O)CC[C@]3(C)[C@H](CC[C@@H]4[C@@]5(C)CC=C(c6ccc(C(=O)O)cc6F)C(C)(C)[C@@H]5CC[C@]43C)[C@@H]12 | 1.4 | 0.05 | – | 0.055 | Ratio EC50 [19]: 1
6 | C=C(C)[C@@H]1CC[C@]2(C(=O)NCCN(C)C)CC[C@]3(C)[C@H](CC[C@@H]4[C@@]5(C)CC=C(c6ccc(C(=O)O)cc6)C(C)(C)[C@@H]5CC[C@]43C)[C@@H]12 | – | – | 0.031 | – | –
7 | C=C(C)[C@@H]1CC[C@]2(C(=O)O)CC[C@]3(C)[C@H](CC[C@@H]4[C@@]5(C)CC=C(c6ccc(C(=O)O)cc6)C(C)(C)[C@@H]5CC[C@]43C)[C@@H]12 | – | – | > 3 | – | AUC at 6 h [20]: 5.72 µM·h; clearance [16]: 1 mL/min/kg
8 | C=C(C)[C@@H]1CC[C@]2(CN(C)CCCN3CCS(=O)(=O)CC3)CC[C@]3(C)[C@H](CC[C@@H]4[C@@]5(C)CC=C(c6ccc(C(=O)O)cc6)C(C)(C)[C@@H]5CC[C@]43C)[C@@H]12 | – | – | 0.026 | – | AUC ([15]; 6 h): 4.834 µM·h
9 | C=C(C)[C@@H]1CC[C@]2(C(=O)N[C@@H](CN(C)C)C(=O)O)CC[C@]3(C)[C@H](CC[C@@H]4[C@@]5(C)CC=C(c6ccc(C(=O)O)cc6)C(C)(C)[C@@H]5CC[C@]43C)[C@@H]12 | 0.772 | – | > 0.16 | 0.046 | –
10 | C=C(C)[C@@H]1CC[C@]2(C(=O)O)CC[C@]3(C)[C@H](CC[C@@H]4[C@@]5(C)CC=C(c6ccc(C(=O)O)cc6Cl)C(C)(C)[C@@H]5CC[C@]43C)[C@@H]12 | > 4 | 0.117 | – | 0.114 | Ratio EC50 [19]: 1
11 | C=C(C)[C@@H]1CC[C@]2(C(=O)O)CC[C@]3(C)[C@H](CC[C@@H]4[C@@]5(C)CC=C(c6ccc(C(=O)O)cc6C)C(C)(C)[C@@H]5CC[C@]43C)[C@@H]12 | 3.9 | 0.66 | – | 0.613 | Ratio EC50 [19]: 1
12 | C=C(C)[C@@H]1CC[C@]2(C(=O)O)CC[C@]3(C)[C@H](CC[C@@H]4[C@@]5(C)CC=C(c6cccc(C(=O)O)c6)C(C)(C)[C@@H]5CC[C@]43C)[C@@H]12 | – | – | – | > 8 | –
13 | C=C(C)[C@@H]1CC[C@]2(C(=O)NCCC(C)C)CC[C@]3(C)[C@H](CC[C@@H]4[C@@]5(C)CC=C(c6ccc(C(=O)O)cc6)C(C)(C)[C@@H]5CC[C@]43C)[C@@H]12 | 0.101 | – | 1.6 | 0.047 | –
14 | C=C(C)[C@@H]1CC[C@]2(C(=O)O)CC[C@]3(C)[C@H](CC[C@@H]4[C@@]5(C)CC=C(c6ccc(C(=O)O)c(C(=O)O)c6)C(C)(C)[C@@H]5CC[C@]43C)[C@@H]12 | 0.212 | – | – | 0.038 | –
15 | C=C(C)[C@@H]1CC[C@]2(C(=O)NCCN(CC)CC(=O)O)CC[C@]3(C)[C@H](CC[C@@H]4[C@@]5(C)CC=C(c6ccc(C(=O)O)cc6)C(C)(C)[C@@H]5CC[C@]43C)[C@@H]12 | 0.009 | – | 0.064 | 0.003 | –
16 | C=C(C)[C@@H]1CC[C@]2(C(=O)NCCNC(C)=O)CC[C@]3(C)[C@H](CC[C@@H]4[C@@]5(C)CC=C(c6ccc(C(=O)O)cc6)C(C)(C)[C@@H]5CC[C@]43C)[C@@H]12 | 0.024 | 0.022 | 0.361 | 0.005 | –
17 | C=C(C)[C@@H]1CC[C@]2(CNCCN(C)C)CC[C@]3(C)[C@H](CC[C@@H]4[C@@]5(C)CC=C(c6ccc(C(=O)O)cc6)C(C)(C)[C@@H]5CC[C@]43C)[C@@H]12 | – | 0.009 | 0.021 | – | –
18 | C=C(C)[C@@H]1CC[C@]2(CNCCCN3CCS(=O)(=O)CC3)CC[C@]3(C)[C@H](CC[C@@H]4[C@@]5(C)CC=C(c6ccc(C(=O)O)cc6)C(C)(C)[C@@H]5CC[C@]43C)[C@@H]12 | – | – | – | – | AUC at 6 h [15]: 1.71 µM·h
19 | C=C(C)[C@@H]1CC[C@]2(NCCN3CCS(=O)(=O)CC3)CC[C@]3(C)[C@H](CC[C@@H]4[C@@]5(C)CC=C(c6ccc(C(=O)O)c(F)c6)C(C)(C)[C@@H]5CC[C@]43C)[C@@H]12 | – | 0.013 | 0.01 | 0.003 | AUC at 6 h [15]: 25.5 µM·h
20 | C=C(C)[C@@H]1CC[C@]2(CNCCN3CCS(=O)(=O)CC3)CC[C@]3(C)[C@H](CC[C@@H]4[C@@]5(C)CC=C(c6ccc(C(=O)O)cc6)C(C)(C)[C@@H]5CC[C@]43C)[C@@H]12 | – | – | 0.006 | – | –
